Read-outs that look alike come from different tables or passages of the source. Residues, ends and D or L forms follow the SMILES beside them. No end group written: not given here.
Columns and labels:
[1] = for Peptide concentration incubated in human saliva: 37° C.; for Stability: summary grade
Description: (§1) The collected saliva samples were centrifuged at 12,000 rpm for 20 min^21]. The supernatant was filtered to remove any debris. […] At 0, 0.5, 1, 2, 4, and 6 h, 40 uL solutions were taken from each sample and were analysed by High Performance Liquid Chromatography (HPLC-UV, 1525 Binary HPLC Pump, 2489 UV/Visible Detector, Waters, USA).

in vitro [2] = details: mouse, MC3T3-E1 cells
Description: (§2) Cells exposed to α-MEM without peptide was the control group. Cells viability after peptide exposure was evaluated by cell survival rate using Cell Counting Kit-8 assay (CCK-8 assay, Sigma-Aldrich, St. Louis, USA).

in vitro [3] = details: human, human saliva (centrifuged, filtered supernatant)
Description: as §1

[4] = Stability of 8DSS-C8-P-113 hydrogel on tooth surface in flow water (BCA); format: physicochemical; details: 16 μM mL^−1, flow water 30 mL h-1, 2 h
Description: 20 μL of 16 μM mL^−1 solution of 8DSS-C8-P-113 was applied to the tooth surface (N=5), and self-formed a layer of hydrogel sticking to the bottom of a hand-made instrument (FIG. 2J). To simulate the average human salivary flow rate, a stable flow of deionized water at a rate of 30 mL h-1 was provided using a Syringe Pump (LSP02-1B Double Channel inject/extract, China). The drained liquid, approximately 15 mL, was collected every 30 min. A sample of 100 μL of 16 μM mL^−1 solution of 8DSS-C8-P-113 was added to 15 mL of deionized water to serve as the 0 min sample. After 2 h, the drained liquids collected at 30 min, 60 min, 90 min, and 120 min were tested for their concentrations using Pierce BCA Protein Assay Kit (Rockford, IL).

S. mutans = test system: S. mutans; design: species or system Sprague-Dawley rats; details: rat, in vivo
Description: The rat caries model was conducted under the protocol approved by the Ethics Committee of Anhui Medical University, China (ref. no. LLSC20232002) in accordance with national and international guidelines to minimise animal suffering. Ten male specific pathogen-free Sprague-Dawley rats aged 6 weeks were selected. The rats were provided with appropriate antibiotics (ampicillin, chloramphenicol, and carbencillin 1.0 g/kg/day) in the drinking water for 3 days. […] The infection was confirmed by oral swabbing and culturing on mitis salivarius-bacitracin (MSB) agar plates. The infected animals were randomly assigned into two groups (N=10): 16 μM mL^−1 of 8DSS-C8-P-113 in 10 mM HEPES (pH=7, n=5) and 10 mM HEPES (n=5, control group). Animals in each group were treated with 150 μL of the respective treatment topically using dental bonding brush for 2 min once daily for 4 weeks. […] The severity of caries was evaluated by the Keyes' scoring system which categorizes caries as enamel only (E), dentin exposed ¼ to ¾ (Ds), or more than ¾ dentin affected (Dm). The rats' weights were recorded to monitor for signs of toxicity. Additionally, various tissues from gingiva, palate, heart, liver, spleen, lung, and kidney were collected, stained with hematoxylin and eosin (H&E), and histopathologically analysed.

Description for MC3T3-E1 cells: as §2

Molecule	Peptide concentration incubated in human saliva ([1]; 0 h)	Peptide concentration incubated in human saliva ([1]; 0.5 h)	Peptide concentration incubated in human saliva ([1]; 1 h)	Peptide concentration incubated in human saliva ([1]; 2 h)	Peptide concentration incubated in human saliva ([1]; 4 h)	Peptide concentration incubated in human saliva ([1]; 6 h)	Stability [1]	viability at 24 h, 2 ×MBC (in vitro [2])	Cytocompatibility (MC3T3-E1 cells)	remaining at 6 h, 1 mg mL^−1 (in vitro [3])	Hydrogel remaining on the tooth surface (of initial status) [4]	Hydrogel remaining on the tooth surface (of initial status) ([4]; listed as 8DSS-C8-P-113 hydrogel)	Histopathology analysis (H&E) (S. mutans)
CC(C)C[C@H](NC(=O)[C@H](CCCNC(=N)N)NC(=O)[C@H](Cc1ccccc1)NC(=O)[C@H](Cc1ccccc1)NC(=O)[C@@H](NC(=O)[C@H](COP(=O)(O)O)NC(=O)[C@@H](N)COP(=O)(O)O)[C@@H](C)O)C(=O)N[C@@H](Cc1ccccc1)C(=O)N[C@@H](CC(N)=O)C(=O)N[C@@H](CCCNC(=N)N)C(=O)N[C@@H](C)C(=O)N[C@@H](CCCCN)C(=O)N[C@@H](CCCNC(=N)N)C(=O)N[C@@H](Cc1c[nH]cn1)C(=O)N[C@@H](Cc1c[nH]cn1)C(=O)NCC(=O)N[C@@H](Cc1ccc(O)cc1)C(=O)N[C@@H](CCCCN)C(=O)N[C@@H](CCCNC(=N)N)C(=O)N[C@@H](CCCCN)C(=O)N[C@@H](Cc1ccccc1)C(=O)N[C@@H](Cc1c[nH]cn1)C(=O)O [DPS-C8-P-113] (HELM PEPTIDE1{[N[C@@H](COP(=O)(O)O)C(=O)[*:2]].[O=C([C@H](COP(=O)(O)O)N[*:1])[*:2]].T.F.F.R.L.F.N.R.A.K.R.H.H.G.Y.K.R.K.F.H}$$$$V2.0)	1 mg/mL	0.9818 mg/mL	0.9785 mg/mL	0.9504 mg/mL	0.5388 mg/mL	0.562 mg/mL	++	48%	+	56.2%	–	–	–
DSSDSSDSSDSSDSSDSSDSSDSSTFFRLFNRAKRHHGYKRKFH [8DSS-C8-P-113]	1 mg/mL	0.9942 mg/mL	0.987 mg/mL	0.9885 mg/mL	0.8991 mg/mL	0.894 mg/mL	+++	–	++	89.4%	over 80%	approximately 82.15%	No signs of inflammatory reaction, proliferative changes, or necrosis

From US20250296961A1, “ANTIMICROBIAL PEPTIDES FOR REMINERALIZATION OF TEETH AND PREVENTION OF DENTAL CARIES” (The University of Hong Kong, priority 2021, published 2025)
